Measured values taken from patent publication US20180328927A1 (HUNAN SKYWORLD BIOTECHNOLOGIES CO., priority 2015, published 2018).
Entries after “also recorded” stand apart in the source; their conditions may differ. Like-named read-outs stand apart in the source and are kept apart here.

Tests used:
[1] = target: methionine adenosyltransferase (MAT) (Escherichia coli, UniProt P0A817)
[2] = tested on: anti-SAM monoclonal antibodies; test: Cross-reaction of anti-SAM antibody with MAT substrates ATP and L-Met, direct competitive ELISA; assay type: binding; details: for Cross-reaction (%): relative to SAM standard at 50% inhibition
Method: (A) Antigen-coating method: A PLL or BSA-conjugated SAM antigen is pre-coated on a solid-phase ELISA micro-titer plate that is then blocked with BSA solution. The antigen to be detected (SAM sample), then HRP-conjugated anti-SAM antibody are added and incubated at the same time. The antigen to be tested and the coating antigen compete for the enzyme-labeled antibody. After incubation and washing, the enzyme-labeled antibody bound to the coating antigen is retained, and the enzyme-labeled antibody that binds to the antigen to be detected (free antigen) is washed away. Finally, adding TMB substrate to the reaction wells. The final coloration result is inversely proportional to the amount of the antigen to be detected, that is, the higher the OD450 value, the lower the SAM concentration in the sample to be measured. In the course of the experiment, a series of SAM solutions with a known concentration were used as standards in the same ELISA micro-titer plate for the standard curve of the assay. Based on the standard curve, an equation showing how OD450 readings and values of the known standard concentration are related can be obtained. Put the sample OD450 into the equation to get the corresponding concentration value of the sample.
The ELISA plates were coated with PLL SAM antigen. […] The HRP-anti-SAM antibody was diluted at 1:25000 with HRP antibody diluent. Added 30 μl standards and cross-reacting substances ATP and Met per well, and 70 μl diluted HRP-anti-SAM antibody per well and incubated at 37° C. for 1 h. Washed the plate, added 100 μl TMB at 37° C. for 15 min, added 50 μl stop solution and read OD450.
A/A0; reaction rate (A0 is the OD450 reading at 0 nM, A represents any OD450 reading of wells that have different amount of free small molecule antigen competing.)

[3] = tested on: MAT-III/I in L02 cells; test: Intracellular MAT activity in L02 cells after GSNO pretreatment and Met; assay type: cell-based, human
[4] = target: T1, MAT-II in HepG2 cells (Homo sapiens, UniProt P31153); test: Intracellular MAT activity in HepG2 cells after GSNO pretreatment and Met; assay type: cell-based
T1 construct: endogenous in cells; host or cells: HepG2

[5] = cross-reacting substance 120 nM
[6] = cross-reacting substance 1200 nM
[7] = cross-reacting substance 3960 nM
[8] = cross-reacting substance 12000 nM

## [Cl-].[K+] [KCl]
[1]; KCl 50 mM, 20 mM MgSO4, 100 mM Tris, ATP 5 mM, Met 4 mM, MAT 1 mg/ml
  A/A0: 0.1983
[1]; KCl 100 mM
  A/A0: 0.1938
[1]; KCl 150 mM
  A/A0: 0.1911
[1]; KCl 200 mM
  A/A0: 0.1973
[1]; KCl 250 mM
  A/A0: 0.2079
[1]; KCl 300 mM
  A/A0: 0.2106
[1]; KCl 400 mM
  A/A0: 0.1995

## O=S(=O)([O-])[O-].[Mg+2] [MgSO4]
[1]; MgSO4 4 mM, 250 mM KCl, 100 mM Tris, ATP 5 mM, Met 4 mM, MAT 1 mg/ml
  A/A0: 0.2199
[1]; MgSO4 10 mM
  A/A0: 0.2047
[1]; MgSO4 30 mM
  A/A0: 0.1867
[1]; MgSO4 50 mM
  A/A0: 0.1766
[1]; MgSO4 70 mM
  A/A0: 0.1734
[1]; MgSO4 100 mM
  A/A0: 0.1724
[1]; MgSO4 from 4 mM to 100 mM
  decrease of A/A0: 0.475

## NC(CO)(CO)CO [Tris, tris (hydroxymethyl) aminomethane]
[1]; Tris 20 mM, after optimal Mg2+ and K+ were determined
  A/A0: 0.4981
[1]; Tris 50 mM
  A/A0: 0.2567
[1]; Tris 100 mM
  A/A0: 0.2168
[1]; Tris 200 mM
  A/A0: 0.2472

## Nc1ncnc2c1ncn2[C@@H]1O[C@H](COP(=O)(O)OP(=O)(O)OP(=O)(O)O)[C@@H](O)[C@H]1O [ATP, adenosine triphosphate]
[2]; [5]
  A/A0 (reaction rate): 1.051
[2]; [6]
  A/A0 (reaction rate): 1.001
[2]; [7]
  A/A0 (reaction rate): 1.095
[2]; [8]
  A/A0 (reaction rate): 1.086
[2]
  Cross-reaction (%): <1%

## N[C@@H](CCC(=O)N[C@@H](CSN=O)C(=O)NCC(=O)O)C(=O)O [GSNO, nitrosoglutathione]
[3]; 1 mM GSNO pretreatment, Met stimulation
  effect of GSNO nitrosylation on MAT-III/I: inhibition of MAT-III or MAT-I after nitrosation of GSNO was obvious; also recorded: inhibitory effect of GSNO nitrosylation on MAT-III/I was obvious
[3]; in the presence of 2 mM Met
  effect of GSNO nitrosylation on MAT activity: remained obvious
[4]; 1 mM GSNO pretreatment
  effect of GSNO nitrosylation on MAT-II: minor effect on MAT-II; also recorded: no inhibitory effect on MAT-II

## CSCC[C@H](N)C(=O)O [Met, methionine]
[3]; 0.5 mM Met 24 h, normalized to 2×10^7 cells, 0 mM Met control 274.4578162
  SAM (nM) synthesized by MAT: 377.7 nM
[3]; 500 μM Met, 24 hours
  effect on MAT-III/I activity: stimulated the activity of MAT-III or MAT-I; also recorded: stimulated MAT-III/I activity
[3]; 2 mM Met
  effect on MAT-III/I activity: No stimulatory effects; also recorded: stimulation was not significant
[3]; 2 mM Met 24 h
  SAM (nM) synthesized by MAT: 236.4 nM
[4]; 0.5 mM Met 24 h, normalized to 2×10^7 cells, 0 mM Met control 247.4761
  SAM (nM) synthesized by MAT: 222.3993 nM
[4]; 2 mM Met 24 h
  SAM (nM) synthesized by MAT: 174.3621 nM
[4]; Met 0.5 and 2 mM
  effect on MAT-II activity: the higher the Met concentration, the lower the activity of MAT-II; also recorded: inhibits MAT-II activity
[2]; [5]
  A/A0 (reaction rate): 1.042
[2]; [6]
  A/A0 (reaction rate): 1.046
[2]; [7]
  A/A0 (reaction rate): 1.012
[2]; [8]
  A/A0 (reaction rate): 1.095
[2]
  Cross-reaction (%): <1%
